From patent US20040147788A1, “Stilbene derivatives and their use as aryl hydrocarbon receptor antagonistic ligands” (priority 2002, published 2004)

Assays:
AhR = target: T1, AhR (Homo sapiens, UniProt P35869); conditions: in humans; cited from earlier work
T1 sequence (P35869 11-848): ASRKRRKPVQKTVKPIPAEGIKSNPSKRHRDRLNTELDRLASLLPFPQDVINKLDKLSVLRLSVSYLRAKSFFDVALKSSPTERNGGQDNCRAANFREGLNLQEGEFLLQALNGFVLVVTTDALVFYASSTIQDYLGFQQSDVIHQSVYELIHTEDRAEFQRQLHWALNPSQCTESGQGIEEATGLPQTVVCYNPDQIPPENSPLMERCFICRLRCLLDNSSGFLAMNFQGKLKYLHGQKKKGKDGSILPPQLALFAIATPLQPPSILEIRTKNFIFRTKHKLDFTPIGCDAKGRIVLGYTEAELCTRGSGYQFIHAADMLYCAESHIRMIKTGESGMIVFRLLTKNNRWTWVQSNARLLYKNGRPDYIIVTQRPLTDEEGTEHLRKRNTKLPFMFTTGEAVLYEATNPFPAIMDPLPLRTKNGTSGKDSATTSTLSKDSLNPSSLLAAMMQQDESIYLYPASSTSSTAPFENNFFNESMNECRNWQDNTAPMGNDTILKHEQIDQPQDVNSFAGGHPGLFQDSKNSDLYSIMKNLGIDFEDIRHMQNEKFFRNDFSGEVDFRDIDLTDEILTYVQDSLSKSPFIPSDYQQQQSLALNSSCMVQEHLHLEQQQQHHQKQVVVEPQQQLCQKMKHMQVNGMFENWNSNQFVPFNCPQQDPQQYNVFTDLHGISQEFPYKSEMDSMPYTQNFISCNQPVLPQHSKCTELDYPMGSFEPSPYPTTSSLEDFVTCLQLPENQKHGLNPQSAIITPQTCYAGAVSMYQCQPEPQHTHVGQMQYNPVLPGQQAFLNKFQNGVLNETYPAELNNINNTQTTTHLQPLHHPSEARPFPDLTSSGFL

CYP1A1/AHH = conditions: read-out: ED50 for induction of CYP1A1/AHH; porcine aortic endothelial; cited from earlier work
A549 cell line = experiment: Cytotoxicity, MTT colorimetric assay; assay type: cell-based, human
Experimental: Cytotoxicity was evaluated on the A549 cell line. […] A MTT colorimetric assay was employed as described in (5) according to the established procedure 1. Drug stock solutions were prepared in EtOH and the final solvent concentration was=1% EtOH(v/v), a concentration without effect on cell replication. […] Cells were cultured at 37° C. in RPMI-1640 medium with streptomycin/penicillin and 5% (v/v) FCS in a humidified atmosphere containing 5% CO2. Initial seeding densities varied among the cell lines to ensure a final absorbance reading in control cultures in the range of 0.7-1 […] units. After the addition of the samples to the cell culture, the cells were incubated for 5 days before the MTT reagent was added. Each test was performed in duplicate and absorbance readings varied no more than 5%.

ER = target: T2, ER (Homo sapiens, UniProt P03372); experiment: ER-mediated transactivation, ERE-driven Luciferase reporter stable cell line (MCF-7-Luc); assay type: cell-based; conditions: trans-stilbenes; also: key: Ago: agonist; N.M.: not measurable
T2 construct: stably transfecting MCF-7 cells with the ERE-globin-tk-luc-SV-Neo plasmid; endogenous in cells; host or cells: MCF-7-Luc (MCF-7 stably transfected with ERE-globin-tk-luc-SV-Neo)
T2 sequence (P03372 1-595): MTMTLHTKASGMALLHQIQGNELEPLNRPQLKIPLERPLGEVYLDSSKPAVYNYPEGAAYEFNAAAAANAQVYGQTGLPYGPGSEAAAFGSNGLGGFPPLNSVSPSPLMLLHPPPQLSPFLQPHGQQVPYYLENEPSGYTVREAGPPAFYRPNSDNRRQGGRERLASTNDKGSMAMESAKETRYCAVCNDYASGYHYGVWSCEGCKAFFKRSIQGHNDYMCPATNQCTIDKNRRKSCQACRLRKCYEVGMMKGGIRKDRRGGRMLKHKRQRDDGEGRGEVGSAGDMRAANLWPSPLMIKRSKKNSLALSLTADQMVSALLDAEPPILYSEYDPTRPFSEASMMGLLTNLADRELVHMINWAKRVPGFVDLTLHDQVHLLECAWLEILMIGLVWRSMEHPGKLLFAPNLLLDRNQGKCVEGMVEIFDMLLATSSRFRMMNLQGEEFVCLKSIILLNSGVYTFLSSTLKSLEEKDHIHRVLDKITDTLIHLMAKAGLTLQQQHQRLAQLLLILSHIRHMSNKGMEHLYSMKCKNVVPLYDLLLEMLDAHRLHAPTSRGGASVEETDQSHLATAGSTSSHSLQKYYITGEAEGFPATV
Experimental: The human adenocarcinoma breast cell line MCF-7 was obtained from the American Tissue Culture Collection (Rockville, USA). The cells were established by stably transfecting MCF-7 cells with the ERE-globin-tk-luc-SV-Neo plasmid and thus expressed luciferase in an estrogen dependent manner MCF-7-Luc. […] Cells were incubated at 37° C. in a humidified 5% CO2 incubator. For experiments, cells were grown for 5 days in phenol red-free medium, containing 5% dextran-coated charcoal treated FCS (DCC-FCS). Medium was changed after 2 days. At day 5, cells were treated or not with compounds. Compounds were dissolved in ethanol.
For each condition, 15.103 cells were seeded per well in 12-well plates and treated, as described above, during 16 hours in a final volume of 0.5 mL. At the end of the treatment, cells were washed with PBS and lysed in 150 μl of lysis buffer (Promega, Charbonnieres, France). Luciferase activity was measured using the luciferase assay reagent (Promega), according to the manufacturer's instructions. Protein concentrations were measured using Bradford technique, to normalize the luciferase activity data. For each condition, average luciferase activity was calculated from the data of 3 independent wells.

Compound	Kd (AhR)	EC50 (CYP1A1/AHH)	cytotoxicity: not toxic up to concentration (A549 cell line)	ER T.A. (transcriptional activity) (ER)
Clc1cc2c(cc1Cl)Oc1cc(Cl)c(Cl)cc1O2 [TCDD, 2,3,7,8-tetrachlorodibenzo-p-dioxin]	1 nM	0.015 nM	–	–
Oc1ccc(C=Cc2cc(O)cc(O)c2)cc1 [Resveratrol, 3,5,4′-trihydroxystilbene, reference compound]	–	–	> 10 µM	Ago
